Laboratory results published in patent US7488568B2, “Resist composition, method of forming resist pattern, compound and acid generator” (Tokyo Ohka Kogyo Co., Ltd., priority 2008, dated 2009).

Test: Evaluation of solubility of acid generators in resist solvents (concentration at which completely dissolved)
Assay type: physicochemical
Conditions: for Solubility in EL (% by weight): ethyl lactate; for Solubility in PGMEA (% by weight): propylene glycol monomethyl ether acetate; for Solubility in PGME (% by weight): propylene glycol monomethyl ether
Procedure: With respect to each of the compounds, propylene glycol monomethyl ether acetate (PGMEA) solutions, propylene glycol monomethyl ether (PGME) solutions and ethyl lactate (EL) solutions of various concentrations were prepared. The prepared solutions were stirred to evaluate the concentration at which the acid generator was completely dissolved.

[1] = Table 1, concentration at which completely dissolved

| Structure (SMILES) | Solubility in EL (% by weight) (Table 1) | Solubility in PGMEA (% by weight) (Table 1) | Solubility in PGME (% by weight) [1] | Solubility in EL (% by weight) (Table 8) | Solubility in PGME (% by weight) (Table 8) | Solubility in PGMEA (% by weight) (Table 8) |
| --- | --- | --- | --- | --- | --- | --- |
| Cc1cc(-[s+]2c3ccccc3c3ccccc32)cc(C)c1OC(=O)OC(C)(C)C [Compound (b1-81)] | 20 % by weight | 20 % by weight | 10 % by weight | – | – | – |
| c1ccc([S+](c2cccc3ccccc23)c2cccc3ccccc23)cc1 [(1)] | – | – | – | 5.0 | 5.0 % by weight | <2.0 % by weight |
| Cc1cc(-[s+]2c3ccccc3c3ccccc32)cc(C)c1OCOC1CCCCC1 [b1-100] | – | – | – | >30 | >30 % by weight | >30 % by weight |
| c1ccc(-[s+]2c3ccccc3c3ccccc32)cc1 [(2)] | – | – | – | 20.0 | 20.0 % by weight | 10~15 % by weight |
| c1ccc(-[s+]2c3ccccc3c3ccccc32)cc1 [(b1-01), phenyldibenzothiophenium nonafluorobutane sulfonate] | 20 % by weight | 20 % by weight | 10-15 % by weight | – | – | – |
| c1ccc([S+](c2cccc3ccccc23)c2cccc3ccccc23)cc1 [(b′-01), di(1-naphthyl)phenylsulfonium nonafluorobutane sulfonate] | 5 % by weight | 5 % by weight | <2 % by weight | – | – | – |
| Cc1cc(-[s+]2c3ccccc3c3ccccc32)cc(C)c1O [Compound (b1-51)] | 10-15 % by weight | 10-15 % by weight | <2 % by weight | – | 10~15 % by weight | – |
